Target: T1, porcine odorant-binding protein (pOBP) (Sus scrofa, UniProt P81245)
T1 construct: recombinant in E. coli BL21-DE3 from pGEX2TK as GST fusion, GST cut off on column with thrombin
T1 sequence (P81245 1-157): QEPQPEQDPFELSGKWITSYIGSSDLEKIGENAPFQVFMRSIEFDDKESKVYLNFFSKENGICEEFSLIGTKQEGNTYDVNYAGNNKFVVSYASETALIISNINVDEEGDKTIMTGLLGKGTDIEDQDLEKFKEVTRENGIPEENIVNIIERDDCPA
Experiment: direct fluorescence titration, emission at […] nm
Settings: 20 mM Tris-HCl pH 7.8, 1.0 μM pOBP, overnight at 4 °C

SMILES: Nc1cccc2cc3ccccc3cc12 [1-amino-anthracene]
- direct fluorescence titration, emission at 480 nm: direct titrations using the fluorescent ligand 1-amino-anthracene (AMA)

Reference: publication PMC4366154, “Easy to Use Plastic Optical Fiber-Based Biosensor for Detection of Butanal” (PLoS ONE, 2015)
